For one compound, melting point results are on record in patent US7205316B2, “Tri- and bi-cyclic heteroaryl histamine-3 receptor ligands” (Abbott Laboratories, priority 2004, dated 2007).

Structures can show the parent of a compound that is named as a salt.

With `Cc1nc2cc(-c3ccc4nc(CCN5CCC[C@H]5C)ccc4c3)ccc2s1` (as salt: hydrochloride) [Example 14, 6-(2-Methyl-benzothiazol-5-yl)-2-[2-(2R-methyl-pyrrolidin-1-yl)-ethyl]-quinoline], the melting point fell in the range of 182 to 183 °C.
